Measured values as given in publication PMC8213057, “Targeting ALK2: An Open Science Approach to Developing Therapeutics for the Treatment of Diffuse Intrinsic Pontine Glioma” (Journal of Medicinal Chemistry, 2020).
Several values for one entry are separate records, joined by “and”; a condition that tells them apart may be missing. Equal entries are not always repeated.

Experiments:
[1] = tested on: ALK5/TGFBR1
[2] = target: CDK9/cyclin T1 (Homo sapiens, UniProt P50750); settings: 1 μM; Run 1, Run 2
Sequence of CDK9/cyclin T1 (P50750 whole entry): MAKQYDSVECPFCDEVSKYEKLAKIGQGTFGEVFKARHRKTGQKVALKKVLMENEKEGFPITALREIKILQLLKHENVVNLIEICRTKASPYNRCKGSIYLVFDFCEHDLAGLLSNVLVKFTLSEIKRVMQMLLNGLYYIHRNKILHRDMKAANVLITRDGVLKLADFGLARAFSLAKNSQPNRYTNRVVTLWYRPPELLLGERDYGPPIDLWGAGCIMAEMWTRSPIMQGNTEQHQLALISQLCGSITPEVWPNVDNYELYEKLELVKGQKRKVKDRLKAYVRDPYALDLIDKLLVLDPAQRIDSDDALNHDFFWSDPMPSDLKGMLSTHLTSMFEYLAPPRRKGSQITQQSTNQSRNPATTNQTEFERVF
Sequence of CDK9/cyclin T1 (O60563 whole entry partner): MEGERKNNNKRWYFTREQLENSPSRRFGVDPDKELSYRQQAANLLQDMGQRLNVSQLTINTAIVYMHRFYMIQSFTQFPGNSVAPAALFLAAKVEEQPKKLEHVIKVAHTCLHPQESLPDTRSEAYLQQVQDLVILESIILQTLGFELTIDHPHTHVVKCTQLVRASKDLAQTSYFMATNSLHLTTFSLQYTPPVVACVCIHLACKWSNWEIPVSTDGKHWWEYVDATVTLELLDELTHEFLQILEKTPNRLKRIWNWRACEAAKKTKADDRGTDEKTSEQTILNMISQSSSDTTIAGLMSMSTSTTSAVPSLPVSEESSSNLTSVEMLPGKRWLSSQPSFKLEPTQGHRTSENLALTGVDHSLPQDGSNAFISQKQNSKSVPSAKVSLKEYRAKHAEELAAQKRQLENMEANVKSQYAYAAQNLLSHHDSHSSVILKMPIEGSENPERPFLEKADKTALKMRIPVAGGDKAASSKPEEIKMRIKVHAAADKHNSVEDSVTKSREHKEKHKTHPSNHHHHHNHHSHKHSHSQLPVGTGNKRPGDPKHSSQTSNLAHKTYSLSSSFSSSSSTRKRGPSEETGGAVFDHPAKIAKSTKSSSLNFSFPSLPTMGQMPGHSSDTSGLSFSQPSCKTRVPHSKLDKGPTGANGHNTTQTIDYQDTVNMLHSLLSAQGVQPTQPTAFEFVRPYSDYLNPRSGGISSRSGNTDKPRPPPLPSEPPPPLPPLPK

[3] = target: CK1epsilon (Homo sapiens, UniProt P49674); settings: 1 μM; Run 1, Run 2
Sequence of CK1epsilon (P49674 whole entry): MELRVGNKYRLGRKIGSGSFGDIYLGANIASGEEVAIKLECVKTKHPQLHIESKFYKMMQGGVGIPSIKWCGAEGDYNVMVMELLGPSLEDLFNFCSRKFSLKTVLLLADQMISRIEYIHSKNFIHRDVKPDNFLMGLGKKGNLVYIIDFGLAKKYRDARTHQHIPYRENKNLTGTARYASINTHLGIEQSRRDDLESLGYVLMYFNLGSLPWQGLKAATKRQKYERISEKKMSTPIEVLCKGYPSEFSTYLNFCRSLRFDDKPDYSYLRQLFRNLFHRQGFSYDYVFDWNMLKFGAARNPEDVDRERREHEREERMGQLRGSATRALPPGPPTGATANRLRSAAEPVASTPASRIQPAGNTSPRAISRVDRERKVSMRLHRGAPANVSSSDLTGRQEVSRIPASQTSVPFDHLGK

[4] = target: c-Kit (Homo sapiens, UniProt P10721); experiment: biochemical; settings: read-out: % enzyme activity, 1 μM; Run 1, Run 2
[5] = target: T1, DCAMKL2 (Homo sapiens, UniProt Q8N568); experiment: biochemical; settings: read-out: % enzyme activity, 1 μM; Run 1, Run 2
T1 sequence (Q8N568 1-766): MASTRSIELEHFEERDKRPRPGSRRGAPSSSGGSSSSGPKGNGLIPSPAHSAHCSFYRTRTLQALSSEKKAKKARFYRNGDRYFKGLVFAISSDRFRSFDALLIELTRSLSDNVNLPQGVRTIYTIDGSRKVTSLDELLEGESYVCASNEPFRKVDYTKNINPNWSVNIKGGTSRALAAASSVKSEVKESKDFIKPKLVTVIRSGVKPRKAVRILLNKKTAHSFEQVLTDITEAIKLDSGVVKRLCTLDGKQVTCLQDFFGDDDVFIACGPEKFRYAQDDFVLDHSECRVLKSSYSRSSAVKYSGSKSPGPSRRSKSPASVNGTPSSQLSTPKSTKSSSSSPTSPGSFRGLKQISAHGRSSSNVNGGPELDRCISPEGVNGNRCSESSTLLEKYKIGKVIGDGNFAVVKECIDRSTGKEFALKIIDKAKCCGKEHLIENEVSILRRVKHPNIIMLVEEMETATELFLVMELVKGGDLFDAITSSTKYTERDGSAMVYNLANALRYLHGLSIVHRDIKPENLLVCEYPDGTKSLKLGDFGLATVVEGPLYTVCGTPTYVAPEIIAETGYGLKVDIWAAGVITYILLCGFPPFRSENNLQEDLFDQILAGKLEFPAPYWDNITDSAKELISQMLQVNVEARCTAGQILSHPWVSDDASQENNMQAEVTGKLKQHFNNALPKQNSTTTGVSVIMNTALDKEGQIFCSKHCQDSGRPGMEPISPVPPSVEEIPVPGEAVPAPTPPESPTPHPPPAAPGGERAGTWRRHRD

[6] = target: ERBB4/HER4 (Homo sapiens, UniProt Q15303); experiment: biochemical; settings: read-out: % enzyme activity, 1 μM; Run 1, Run 2
[7] = target: FGFR2 (Homo sapiens, UniProt P21802); experiment: biochemical; settings: read-out: % enzyme activity, 1 μM; Run 1, Run 2
[8] = target: MEKK1 (Homo sapiens, UniProt Q13233); experiment: biochemical; settings: read-out: % enzyme activity, 1 μM; Run 1, Run 2
Sequence of MEKK1 (Q13233 whole entry): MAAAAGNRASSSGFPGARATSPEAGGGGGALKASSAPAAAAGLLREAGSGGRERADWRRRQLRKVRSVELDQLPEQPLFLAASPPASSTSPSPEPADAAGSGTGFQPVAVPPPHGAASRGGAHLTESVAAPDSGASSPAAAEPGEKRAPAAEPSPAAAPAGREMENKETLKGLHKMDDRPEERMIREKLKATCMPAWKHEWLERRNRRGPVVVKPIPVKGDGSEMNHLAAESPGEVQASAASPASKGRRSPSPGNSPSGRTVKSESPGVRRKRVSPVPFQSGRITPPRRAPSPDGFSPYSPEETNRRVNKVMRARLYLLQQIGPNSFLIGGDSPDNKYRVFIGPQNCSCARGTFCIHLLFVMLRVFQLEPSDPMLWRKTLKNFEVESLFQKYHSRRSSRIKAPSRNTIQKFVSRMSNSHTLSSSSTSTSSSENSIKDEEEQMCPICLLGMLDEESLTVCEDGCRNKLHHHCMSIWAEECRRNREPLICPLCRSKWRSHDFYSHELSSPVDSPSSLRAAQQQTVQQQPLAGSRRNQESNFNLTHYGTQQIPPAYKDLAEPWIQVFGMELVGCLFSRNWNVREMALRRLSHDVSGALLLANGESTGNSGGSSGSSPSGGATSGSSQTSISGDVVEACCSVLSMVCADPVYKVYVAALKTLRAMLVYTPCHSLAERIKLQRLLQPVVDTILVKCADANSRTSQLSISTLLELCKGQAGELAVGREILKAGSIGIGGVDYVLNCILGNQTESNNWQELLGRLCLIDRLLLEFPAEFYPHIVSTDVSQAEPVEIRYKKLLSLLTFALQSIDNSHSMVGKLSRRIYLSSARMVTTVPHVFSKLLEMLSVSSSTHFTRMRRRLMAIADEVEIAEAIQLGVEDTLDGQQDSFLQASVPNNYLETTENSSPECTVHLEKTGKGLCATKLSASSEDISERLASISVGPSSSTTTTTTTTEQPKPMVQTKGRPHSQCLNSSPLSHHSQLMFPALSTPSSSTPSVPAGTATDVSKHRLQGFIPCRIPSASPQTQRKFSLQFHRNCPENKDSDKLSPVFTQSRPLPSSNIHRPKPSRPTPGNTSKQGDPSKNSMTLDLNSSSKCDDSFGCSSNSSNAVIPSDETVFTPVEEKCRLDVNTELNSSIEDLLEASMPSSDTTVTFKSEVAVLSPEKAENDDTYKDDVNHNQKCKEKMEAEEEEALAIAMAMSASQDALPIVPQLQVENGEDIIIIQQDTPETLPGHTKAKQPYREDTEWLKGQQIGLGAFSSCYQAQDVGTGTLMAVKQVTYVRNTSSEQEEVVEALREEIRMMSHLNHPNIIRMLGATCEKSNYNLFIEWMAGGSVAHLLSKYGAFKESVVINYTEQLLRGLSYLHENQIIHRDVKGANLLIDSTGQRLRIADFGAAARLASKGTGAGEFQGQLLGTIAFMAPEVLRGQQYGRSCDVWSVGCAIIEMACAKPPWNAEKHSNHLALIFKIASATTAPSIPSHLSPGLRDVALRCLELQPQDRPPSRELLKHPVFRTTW

[9] = target: T2, MEKK6 (Homo sapiens, UniProt O95382); experiment: biochemical; settings: read-out: % enzyme activity, 1 μM; Run 1, Run 2
T2 sequence (O95382 1-1288): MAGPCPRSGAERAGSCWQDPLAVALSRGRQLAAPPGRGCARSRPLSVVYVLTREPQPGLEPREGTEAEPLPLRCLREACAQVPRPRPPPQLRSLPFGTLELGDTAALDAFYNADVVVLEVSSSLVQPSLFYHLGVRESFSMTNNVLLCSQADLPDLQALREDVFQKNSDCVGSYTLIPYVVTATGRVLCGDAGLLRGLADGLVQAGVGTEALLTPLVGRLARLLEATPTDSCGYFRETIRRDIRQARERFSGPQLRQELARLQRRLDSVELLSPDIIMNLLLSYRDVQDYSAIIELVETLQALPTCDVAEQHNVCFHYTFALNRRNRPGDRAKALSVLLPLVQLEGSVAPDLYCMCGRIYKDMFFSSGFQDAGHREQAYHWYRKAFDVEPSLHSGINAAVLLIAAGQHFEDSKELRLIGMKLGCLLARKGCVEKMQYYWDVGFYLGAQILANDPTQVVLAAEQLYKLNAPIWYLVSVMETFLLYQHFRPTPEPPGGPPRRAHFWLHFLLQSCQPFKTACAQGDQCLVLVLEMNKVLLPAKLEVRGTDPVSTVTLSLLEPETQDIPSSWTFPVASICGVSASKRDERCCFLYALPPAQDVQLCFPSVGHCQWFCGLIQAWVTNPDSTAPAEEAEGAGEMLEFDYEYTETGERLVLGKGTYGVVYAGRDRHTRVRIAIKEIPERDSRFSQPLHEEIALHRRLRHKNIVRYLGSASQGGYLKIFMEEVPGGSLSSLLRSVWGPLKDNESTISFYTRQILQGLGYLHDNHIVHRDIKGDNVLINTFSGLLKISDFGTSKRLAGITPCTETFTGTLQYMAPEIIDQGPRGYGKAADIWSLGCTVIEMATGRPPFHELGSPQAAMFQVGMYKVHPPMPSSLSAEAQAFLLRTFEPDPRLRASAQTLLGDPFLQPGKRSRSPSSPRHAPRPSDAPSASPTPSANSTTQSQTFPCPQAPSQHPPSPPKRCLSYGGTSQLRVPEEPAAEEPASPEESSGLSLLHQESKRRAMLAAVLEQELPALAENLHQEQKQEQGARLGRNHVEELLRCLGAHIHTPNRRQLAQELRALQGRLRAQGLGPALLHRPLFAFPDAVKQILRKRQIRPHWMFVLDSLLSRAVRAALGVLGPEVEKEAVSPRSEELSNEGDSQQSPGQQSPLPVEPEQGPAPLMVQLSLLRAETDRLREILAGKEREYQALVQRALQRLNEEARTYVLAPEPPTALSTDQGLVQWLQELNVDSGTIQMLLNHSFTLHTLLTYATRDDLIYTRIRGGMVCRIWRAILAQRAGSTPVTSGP

[10] = target: RAF1 (Homo sapiens, UniProt P04049); experiment: biochemical; settings: read-out: % enzyme activity, 1 μM; Run 1, Run 2
Sequence of RAF1 (P04049 whole entry): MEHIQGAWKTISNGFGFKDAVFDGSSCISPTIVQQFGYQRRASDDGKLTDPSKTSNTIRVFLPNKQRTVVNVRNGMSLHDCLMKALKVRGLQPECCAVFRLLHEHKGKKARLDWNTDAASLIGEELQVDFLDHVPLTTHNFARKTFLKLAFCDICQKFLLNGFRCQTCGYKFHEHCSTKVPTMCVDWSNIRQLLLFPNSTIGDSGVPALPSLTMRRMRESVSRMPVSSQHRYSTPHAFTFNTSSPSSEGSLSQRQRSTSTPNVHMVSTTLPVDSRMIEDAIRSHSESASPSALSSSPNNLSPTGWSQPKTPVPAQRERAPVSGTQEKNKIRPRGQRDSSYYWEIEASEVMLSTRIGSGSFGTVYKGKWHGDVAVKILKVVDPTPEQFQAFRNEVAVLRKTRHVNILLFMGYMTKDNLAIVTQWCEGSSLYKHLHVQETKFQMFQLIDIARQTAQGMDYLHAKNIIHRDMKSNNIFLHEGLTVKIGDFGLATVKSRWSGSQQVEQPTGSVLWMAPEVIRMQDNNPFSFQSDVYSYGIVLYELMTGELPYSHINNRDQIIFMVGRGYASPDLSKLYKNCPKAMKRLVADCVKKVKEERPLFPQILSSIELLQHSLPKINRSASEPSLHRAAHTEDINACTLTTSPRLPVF

[11] = target: TTBK2 (Homo sapiens, UniProt Q6IQ55); experiment: biochemical; settings: read-out: % enzyme activity, 1 μM; Run 1, Run 2
Sequence of TTBK2 (Q6IQ55 whole entry): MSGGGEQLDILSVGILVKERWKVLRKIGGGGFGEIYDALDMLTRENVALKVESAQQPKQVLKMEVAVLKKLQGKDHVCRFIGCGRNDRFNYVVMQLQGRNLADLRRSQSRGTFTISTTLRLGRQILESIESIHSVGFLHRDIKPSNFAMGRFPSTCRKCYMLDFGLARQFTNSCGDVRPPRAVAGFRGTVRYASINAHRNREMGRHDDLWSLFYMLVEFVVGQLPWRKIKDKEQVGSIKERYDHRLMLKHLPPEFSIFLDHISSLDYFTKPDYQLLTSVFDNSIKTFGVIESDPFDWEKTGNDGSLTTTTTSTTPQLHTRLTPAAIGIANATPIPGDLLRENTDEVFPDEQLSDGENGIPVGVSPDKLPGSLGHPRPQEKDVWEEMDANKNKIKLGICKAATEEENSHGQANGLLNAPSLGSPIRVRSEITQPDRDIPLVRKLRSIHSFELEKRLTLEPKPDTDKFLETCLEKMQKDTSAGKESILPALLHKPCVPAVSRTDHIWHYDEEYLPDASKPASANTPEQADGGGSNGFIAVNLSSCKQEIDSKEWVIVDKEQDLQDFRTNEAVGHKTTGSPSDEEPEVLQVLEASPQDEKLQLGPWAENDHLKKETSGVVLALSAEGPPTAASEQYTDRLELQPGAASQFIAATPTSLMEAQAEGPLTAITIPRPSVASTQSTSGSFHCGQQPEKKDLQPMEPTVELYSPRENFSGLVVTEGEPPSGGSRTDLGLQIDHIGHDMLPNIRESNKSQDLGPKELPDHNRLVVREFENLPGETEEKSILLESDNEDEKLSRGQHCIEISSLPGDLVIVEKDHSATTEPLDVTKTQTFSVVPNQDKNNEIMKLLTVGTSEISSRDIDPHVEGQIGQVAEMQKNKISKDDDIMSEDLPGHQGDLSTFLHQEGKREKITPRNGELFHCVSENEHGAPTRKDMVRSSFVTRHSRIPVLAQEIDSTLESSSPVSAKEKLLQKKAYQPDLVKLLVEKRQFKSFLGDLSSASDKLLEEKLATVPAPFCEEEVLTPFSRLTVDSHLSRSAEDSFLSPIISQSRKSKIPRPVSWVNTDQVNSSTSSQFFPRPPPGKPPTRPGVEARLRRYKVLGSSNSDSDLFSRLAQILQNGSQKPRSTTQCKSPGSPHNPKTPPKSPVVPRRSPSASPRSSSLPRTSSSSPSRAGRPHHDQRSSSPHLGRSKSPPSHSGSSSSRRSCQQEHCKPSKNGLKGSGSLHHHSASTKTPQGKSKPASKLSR

| Compound | % enzyme activity at 1 μM [1] | % enzyme activity [2] [%] | % enzyme activity [3] [%] | remaining activity at 1 µM [4] [%] | remaining activity at 1 µM [5] [%] | remaining activity at 1 µM [6] [%] | remaining activity at 1 µM [7] [%] | remaining activity at 1 µM [8] [%] | remaining activity at 1 µM [9] [%] | remaining activity at 1 µM [10] [%] | remaining activity at 1 µM [11] [%] |
| --- | --- | --- | --- | --- | --- | --- | --- | --- | --- | --- | --- |
| COc1cc(-c2cncc(-c3ccc(N4C[C@@H](C)N(C)[C@@H](C)C4)cc3)c2C)cc(F)c1C(N)=O [Compound 26c, 2-Fluoro-6-methoxy-4-(4-methyl-5-(4-((3R,5S)-3,4,5-trimethylpiperazin-1-yl)phenyl)pyridin-3-yl)benzamide] | 97.2% and 96.6% | 96.85 | 90.08 | 75.8 | 84.5 | 94.9 | 91.9 | 97.7 | 95.9 | 85.5 | 97.8 |
| COc1cc(-c2cncc(-c3ccc(N4CCN(C)CC4)cc3)c2C)cc(F)c1C(N)=O [Compound 26a, 2-Fluoro-6-methoxy-4-(4-methyl-5-(4-(4-methylpiperazin-1-yl)phenyl)pyridin-3-yl)benzamide] | 82.5% and 82.3% | 90.82 | 93.07 | 74.1 | 64.4 | 99.5 | 95.5 | 94.3 | 98.3 | 78.7 | 97.1 |
